system: Hedgehog signaling pathway; assay: Gli-Luc luciferase reporter gene assay in C3H10T1/2/Gli-Luc cells under Shh-N stimulation; type: cell-based; settings: Mus musculus, C3H 10T1/2, 24 h, luciferase RLU, read-out: biological activity: IC50 of the inhibitory activities of compounds on the hedgehog pathway
Source text: The luciferase (Gli-Luc) reporter gene with Gli response element was transfected into C3H10T1/2 cells, under Shh-N stimulation conditions, determine the Hedgehog signaling pathway inhibitors through the detection of gene expression in cell activity report. In this study, we evaluated the inhibitory effects of compounds on Hedgehog signaling pathway in the IC50 value of the compound as an index.
Cell lines: C3H10T1/2/Gli-Luc stable cell line • C3H10T1/2/Gli-Luc Cell culture medium (DMEM/high glucose HyClone, #SH30022.01B; 10% serum Hyclone, #SV30087; 0.4% Hygromycin B Roche, #13398200) • 0.25% Trypsin-EDTA (Gibco, #25200)
Shh-N, HEK293/SHH-N stable cell culture supernatant
Inoculate the logarithmic growth phase of C3H10T1/2/Gli-Luc cells into a 96-well culture plate with 20000 cells per well, cells were cultured in a 37° C., 5% CO2 incubator overnight. The next day, the compounds were diluted in the following ways: the positive compound GDC0449 (1 mM) and the compounds (1 mM) to be measured were serially diluted to 7 concentrations by DMSO according to 1:3 and 1:10 respectively, the eighth is for DMSO control, and then diluted with fresh medium 100 times. The medium of the cells cultured overnight was removed, 80 μL fresh culture medium was added per well, then 20 μL gradiently diluted positive compound and compounds to be measured and 100 μL 30 nM Shh-N containing conditioned medium were added, each concentration repeated 2 wells, at the same time, positive and negative reference well were set (i.e. Shh Ctrl: 80 μL fresh medium+20 μL 1% DMSO containing medium+100 μL 30 nM Shh-N containing conditioned medium; Unstimulated Ctrl: 180 μL fresh medium+20 μL 1% DMSO containing medium), cells were cultured in the incubator for further 24 h.
Intracellular luciferase activity detection: take the cells out of 96-well plate, discard the culture medium, the cells were washed with PBS twice, then each well added with 20 μL lysate (Promega E1531), oscillate pyrolysis at room temperature for 30 min. 5 μL cell lysates were transferred to 384-well plate (Greiner 781074), then each well was added with 25 μL luciferase reaction liquid (Promega E1501), after rapid mixed, immediately placed into the VarioSkan Flash multi-function reading instrument to read the relative light units (RLU) value.
Data analysis: using Prism's GraphPad 5 for data analysis. RLU reading to the logarithmic mapping of compound concentration on behalf of luciferase activity, and then curve fitting using the following equation to give IC50 value, Y (RLU)=minimum+(maximum−minimum)/(1+10^(log of compound concentration−Log IC50)).

Row | SMILES | IC50 [nM]
1 | Cc1cn(-c2ccc(N3CC4CC3CO4)cc2)c(=O)c2cccc(-c3ccc(C#N)cc3)c12 (stereo not drawn) [Embodiment 6] | 500 to 1000
2 | COc1c(N2CCN(C(=O)Cc3ccncc3)CC2)cnc2c(-c3ccc(C#N)cc3)cccc12 [Embodiment 207, 4-(4-methoxy-3-(4-(2-(pyridin-4-yl)acetyl)piperazin-1-yl)quinolin-8-yl)benzonitrile] | 100 to 500
3 | COc1c(N2CCN(C(=O)NC3CCOCC3)CC2)cnc2c(-c3ccc(C#N)cc3)cccc12 [Embodiment 212] | ≤ 50
4 | COc1c(-c2ccc(N3C[C@@H](C)N(C(=O)CO)[C@@H](C)C3)nc2)cnc2c(-c3ccc(C#N)cc3)cccc12 [Embodiment 189, 4-(3-(6-(4-(2-hydroxyacetyl)-3,5-dimethylpiperazin-1-yl)pyridin-3-yl)-4-methoxyquinolin-8-yl)benzonitrile] | ≤ 50
5 | COc1c(N2CCN(c3ccc(C(C)(C)O)cn3)C(=O)C2)cnc2c(-c3ccc(C#N)cc3)cccc12 [Embodiment 253, 4-(3-(4-(5-(2-hydroxypropan-2-yl)pyridin-2-yl)-3-oxopiperazin-1-yl-4-methoxyquinolin-8-yl))benzonitrile] | 100 to 500
6 | CCOC(=O)N1[C@H](C)CN(c2ccc(-c3cnc4c(-c5ccc(C#N)cc5)cccc4c3OC)cc2)C[C@@H]1C [Embodiment 183] | 50 to 100
7 | Cc1cn(-c2ccc(N3CC(C)N(C(=O)C(C)C)C(C)C3)cc2)c(=O)c2cccc(-c3ccc(C#N)cc3)c12 (stereo not drawn) [Embodiment 24] | 50 to 100
8 | CC(C)(O)c1ccc(N2CCN(c3cnc4c(-c5ccc(C#N)cc5)cccc4c3C3CC3)C(=O)C2)nc1 [Embodiment 254, 4-(4-cyclopropyl-3-(4-(5-(2-hydroxypropan-2-yl)pyridin-2-yl)-2-oxopiperazin-1-yl)quinolin-8-yl)benzonitrile] | ≤ 50
9 | COc1c(-c2ccc(N3C[C@@H](C)O[C@@H](C)C3)cc2)cnc2c(-c3nc4ccccc4[nH]3)cccc12 [Embodiment 114, (2S,6R)-4-(4-(8-(1H-benzo[d]imidazol-2-yl)-4-methoxyquinolin-3-yl)phenyl)-2,6-dimethylmorpholine] | 1000 to 5000
10 | COc1c(N2CC(N3C[C@@H](C)O[C@@H](C)C3)C2)cnc2c(-c3ccc(C#N)cc3)cccc12 [Embodiment 228, 4-(3-(3-(2,6-dimethylmorpholino-4-yl)azetidin-1-yl)-4-methoxyquinolin-8-yl) benzonitrile] | 100 to 500
11 | COc1c(-c2ccc(N3C[C@@H](C)O[C@@H](C)C3)cc2)cnc2c(-c3ccc4c(c3)OCO4)cccc12 [Embodiment 109] | 50 to 100
12 | Cc1cn(-c2ccc(N3C[C@@H](C)O[C@@H](C)C3)cc2)c(=O)c2ccnc(-c3ccc(OC(F)(F)F)cc3)c12 [Embodiment 83] | 1000 to 5000
13 | COc1c(-c2ccc(N3C[C@@H](C)O[C@@H](C)C3)cc2)cnc2c1CCCC2(O)c1ccc(C#N)cc1 (stereo partly drawn) [Embodiment 156, 4-(3-(4-((2S,6R)-2,6-dimethylmorpholino)phenyl)-8-hydroxy-4-methoxy-5,6,7,8-tetra hydroquinolin-8-yl)benzonitrile] | 500 to 1000
14 | C[C@@H]1CN(c2ccc(-c3cnc4c(-c5ccc(C#N)cc5)cccc4c3C3CC3)cc2)C[C@H](C)O1 [Embodiment 121, 4-(4-cyclopropyl-3-(4-((2S,6R)-2,6-dimethylmorpholino)phenyl)quinolin-8-yl) benzonitrile] | ≤ 50
15 | COC(=O)c1c(-c2ccc(N3C[C@@H](C)O[C@@H](C)C3)cc2)cnc2c(-c3ccc(C#N)cc3)cccc12 [Embodiment 128, methyl 8-(4-cyanophenyl)-3-(4-((2S,6R)-2,6-dimethylmorpholino)phenyl)quinoline-4-carboxylate] | 500 to 1000
16 | Cc1c(-c2ccc(N3C[C@@H](C)O[C@@H](C)C3)nc2)cnc2c(-c3ccc(C#N)cc3)cccc12 [Embodiment 132, 4-(3-(6-((2S,6R)-2,6-dimethylmorpholino)pyridin-3-yl)-4-methylquinolin-8-yl) benzonitrile] | ≤ 50
17 | CC(C)c1c(-c2ccc(N3C[C@@H](C)O[C@@H](C)C3)nc2)cnc2c(-c3ccc(C#N)cc3)cccc12 [Embodiment 258, 4-(3-(6-((2S,6R)-2,6-dimethylmorpholino)pyridin-3-yl)-4-isopropylquinolin-8-yl) benzonitrile] | 100 to 500
18 | COc1c(C(=O)Nc2ccc(N3C[C@@H](C)O[C@@H](C)C3)cc2)cnc2c(-c3ccc(C#N)cc3)cccc12 [Embodiment 242, 8-(4-cyanophenyl)-N-(4-((2S,6R)-2,6-dimethylmorpholino)phenyl)-4-methoxyquinoline-3-carboxamide] | ≤ 50

Row | SMILES | IC50 [nM]
19 | COc1c(-c2ccc(N3C[C@@H](C)O[C@@H](C)C3)cc2Cl)cnc2c(-c3ccc(C#N)cc3)cccc12 [Embodiment 170] | ≤ 50
20 | COc1c(-c2ccc(N3C[C@@H](C)O[C@@H](C)C3)cc2)cnc2c(-c3ccc(S(=O)(=O)N4CCOCC4)cc3)cccc12 [Embodiment 96] | 100 to 500
21 | COc1cccc(N2CCN(c3ccc(-n4cc(C)c5c(-c6ccc(C#N)cc6)cccc5c4=O)cc3)CC2(C)C)c1 [Embodiment 5] | 100 to 500
22 | C[C@@H]1CN(c2ccc(-c3cnc4c(-c5ccc(C#N)cc5)cccc4c3NS(C)(=O)=O)cc2)C[C@H](C)O1 [Embodiment 130] | 500 to 1000
23 | COc1c(-c2ccc(N3C[C@@H](C)O[C@@H](C)C3)cc2)cnc2c(-c3ccc(C#N)cc3)cncc12 | ≤ 50
24 | Cc1cn(-c2ccc(N3C[C@@H](C)O[C@@H](C)C3)cc2)c(=O)c2cccc(-c3ccc(OC(F)(F)F)cc3)c12 [Embodiment 47] | 1000 to 5000
25 | Cc1cn(-c2ccc(N3CC(C)N(S(=O)(=O)c4ccccc4)C(C)C3)cc2)c(=O)c2cccc(-c3ccc(C#N)cc3)c12 (stereo not drawn) [Embodiment 32] | 100 to 500
26 | CC(C)(O)c1ccc(C2(O)CCN(c3cnc4c(-c5ccc(C#N)cc5)cccc4c3C3CC3)CC2)nc1 [Embodiment 262] | ≤ 50
27 | C[C@@H]1CN(c2ccc(-c3cnc4c(-c5ccc(C#N)cc5)cncc4c3Cl)cc2)C[C@H](C)O1 [Embodiment 153, 4-(4-chloro-3-(4-((2S,6R)-2,6-dimethylmorpholino)phenyl)-1,6-naphthyridin-8-yl) benzonitrile] | 100 to 500
28 | COc1c(-c2ccc(N3C[C@@H](C)O[C@@H](C)C3)cn2)cnc2c(-c3ccc(C#N)cc3)cccc12 [Embodiment 171] | ≤ 50
29 | COc1c(C2(O)CCN(c3ccc(C(C)(C)O)cn3)CC2)cnc2c(-c3ccc(C#N)cc3)cccc12 [Embodiment 240, 4-(3-(4-hydroxy-5′-(1-hydroxy-1-methyl-ethyl)-3,4,5,6-tetrahydro-2H-[1,2′]bipyridyl-4-yl)4-methoxyquinolin-8-yl)benzonitrile] | 100 to 500
30 | COc1c(-c2ccc(N3C[C@@H](C)N(C(=O)c4ncc[nH]4)[C@@H](C)C3)cc2)cnc2c(-c3ccc(C#N)cc3)cccc12 [Embodiment 187] | ≤ 50
31 | COc1c(-c2ccc(N3C[C@@H](C)N(C(=O)CC(F)(F)F)[C@@H](C)C3)nc2)cnc2c(-c3ccc(C#N)cc3)cccc12 [Embodiment 197] | 500 to 1000
32 | COc1c(-c2ccc(N3C[C@@H](C)O[C@@H](C)C3)nc2C)cnc2c(-c3ccc(C#N)cc3)cccc12 [Embodiment 166, 4-(3-(6-((2S,6R)-2,6-dimethylmorpholino)-2-methylpyridin-3-yl)-4-methoxyquinolin-8-yl)benzonitrile] | ≤ 50
33 | CCC(=O)N1[C@@H]2CC[C@H]1CN(c1ccc(-c3cnc4c(-c5ccc(C#N)cc5)cccc4c3OC)cn1)C2 [Embodiment 205, 4-(4-methoxy-3-(6-(8-propionyl-3,8-diazabicyclo[3.2.1]octan-3-yl)pyridin-3-yl)quinolin-8-yl)benzonitrile] | 50 to 100
34 | C[C@@H]1CN(c2ccc(-n3ccc4c(-c5ccc(C#N)cc5)cccc4c3=O)cc2Br)C[C@H](C)O1 [Embodiment 79, 4-(2-(3-bromo-4-((2S,6R)-2,6-dimethylmorpholino)phenyl)-1-oxo-1,2-dihydroisoquinolin-5-yl)benzonitrile] | 500 to 1000
35 | CCC(=O)N1[C@H](C)CN(c2ccc(-c3cnc4c(-c5ccc(C#N)cc5)cccc4c3OC)cn2)C[C@@H]1C [Embodiment 204] | ≤ 50
36 | COc1c(-c2ccc(N3C[C@@H](C)O[C@@H](C)C3)cc2)cnc2c(-c3cnc(N(C)C)nc3)cccc12 [Embodiment 110] | 100 to 500

Source: patent publication US9938292B2 (GUANGDONG ZHONGSHENG PHARMACEUTICAL CO., LTD, priority 2014, dated 2018)
